Reference: US7323480B2, “Substituted triazoles as modulators of PPAR and methods of their preparation” (Metabolex, Inc., priority 2004, dated 2008)
Like-named read-outs stand apart in the source and are kept apart here.

Assays:
Format in all cases: cell-based
mouse PPAR δ = biological target: T1, mouse PPAR δ (Mus musculus, UniProt P35396); assay: PPAR δ transactivation (GAL4 chimera luciferase gene activation) assay; details: GAL4 DNA binding domain-PPAR δ ligand binding domain chimera, pFR-Luc reporter, HEK293T cells, 20 hours incubation; read-out: Gene Activation Assay: EC50 PPAR delta
T1 construct: expressed in transfected cells; host or cells: HEK293T
T1 sequence (P35396 210-438 limits assumed): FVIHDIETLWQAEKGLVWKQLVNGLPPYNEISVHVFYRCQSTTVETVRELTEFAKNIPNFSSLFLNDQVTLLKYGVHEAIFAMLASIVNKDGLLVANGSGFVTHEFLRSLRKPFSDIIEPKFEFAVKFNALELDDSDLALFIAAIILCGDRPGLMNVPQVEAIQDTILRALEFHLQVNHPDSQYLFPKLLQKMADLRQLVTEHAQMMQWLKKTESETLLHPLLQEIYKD
Text: (§1) Measurement of PPARγ, δ, and α Transactivation Activity
(§2) Chimeric receptors were constructed in which the yeast transcription factor GAL4 DNA binding domain was fused to the ligand binding domain of either mouse PPARγ, mouse PPAR δ or mouse PPAR α in order to assess the ability of the compounds of the present invention to activate gene expression in a PPAR-dependent manner. The chimeric receptor expression plasmids (GAL4-nPPARγ, GAL4-mPPAR δ and GAL4-PPAR α) and the reporter plasmid containing 5×GAL4 binding site (pFR-Luc, obtained from Stratagene) were transfected into HEK293T cells using the Lipofectamine 2000 reagent (Invitrogen), according to the manufacturers instructions. Six hours after transfection, the culture medium was renewed and the cells were incubated for 20 hours in presence of either 1) DMSO (vehicle), 2) a compound of the invention or 3) a reference compound for comparison. Rosiglitazone (obtained from WDF Pharma) was used as a reference compound for the PPARγ assay; GW501516 (prepared as described in Sznaidman et al. Bioorg. Med. Chem. Lett. (2003) 13:1517-1521) was used as a reference compound for the PPAR δ assay and GW7647 (obtained from Sigma) was used as a reference compound for the PPAR α assay. Luciferase activity was measured as a reporter of gene expression. Luciferase activity on the cell lysates using the Steady-Glo reagent was measured according to the manufacturers instructions.

mouse PPARγ = biological target: T2, mouse PPARγ (Mus musculus, UniProt P37238); assay: PPARγ transactivation (GAL4 chimera luciferase gene activation) assay; details: GAL4 DNA binding domain-PPARγ ligand binding domain chimera, pFR-Luc reporter, HEK293T cells, 20 hours incubation
T2 construct: expressed in transfected cells; host or cells: HEK293T
T2 sequence (P37238 238-503 limits assumed): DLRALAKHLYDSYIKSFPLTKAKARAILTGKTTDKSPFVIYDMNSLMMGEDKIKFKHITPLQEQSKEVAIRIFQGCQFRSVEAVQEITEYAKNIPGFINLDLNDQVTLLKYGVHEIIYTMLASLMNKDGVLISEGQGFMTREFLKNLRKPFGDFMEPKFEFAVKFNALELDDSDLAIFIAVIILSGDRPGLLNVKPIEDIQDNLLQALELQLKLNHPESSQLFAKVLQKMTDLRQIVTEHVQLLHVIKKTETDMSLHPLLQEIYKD
Text: as §1, §2

mouse PPAR α = biological target: T3, mouse PPAR α (Mus musculus, UniProt P23204); assay: PPAR α transactivation (GAL4 chimera luciferase gene activation) assay; details: GAL4 DNA binding domain-PPAR α ligand binding domain chimera, pFR-Luc reporter, HEK293T cells, 20 hours incubation; read-out: Gene Activation Assay: EC50 PPAR alpha
T3 construct: expressed in transfected cells; host or cells: HEK293T
T3 sequence (P23204 239-466 limits assumed): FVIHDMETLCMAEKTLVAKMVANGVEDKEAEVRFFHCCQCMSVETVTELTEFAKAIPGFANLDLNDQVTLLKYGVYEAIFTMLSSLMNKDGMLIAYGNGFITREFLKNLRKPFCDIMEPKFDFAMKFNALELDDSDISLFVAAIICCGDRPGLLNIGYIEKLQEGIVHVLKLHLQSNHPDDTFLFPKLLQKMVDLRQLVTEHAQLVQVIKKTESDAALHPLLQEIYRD
Text: as §1, §2

[1] = read-out: Gene Activation Assay: EC50 PPAR gamma

Cc1cc(SCc2nn(-c3ccc(C(F)(F)F)cc3)nc2C)ccc1OCC(=O)O [Compound 100, {2-Methyl-4-[5-methyl-2-(4-trifluoromethyl-phenyl)-2H-[1,2,3]triazol-4-ylmethylsulfanyl]-phenoxy}-acetic acid]
EC50 (mouse PPAR δ): ≤ 10 µM
EC50 (mouse PPARγ; [1]): > 30 µM
EC50 (mouse PPAR α): > 10 µM

Cc1cc(SCc2nn(-c3ccc(C(F)(F)F)cc3)nc2C)ccc1OC(C)C(=O)O (stereo not drawn) [Compound 110, 2-{2-Methyl-4-[5-methyl-2-(4-trifluoromethyl-phenyl)-2H-[1,2,3]triazol-4-ylmethylsulfanyl]-phenoxy}-propionic acid]
EC50 (mouse PPAR δ): ≤ 10 µM
EC50 (mouse PPARγ; [1]): ≤ 10 µM
EC50 (mouse PPAR α): ≤ 10 µM

Cc1cc(SCc2nn(-c3ccc(C(F)(F)F)cc3)nc2C)ccc1OC(C)(C)C(=O)O [Compound 210, 2-Methyl-2-{2-methyl-4-[5-methyl-2-(4-trifluoromethyl-phenyl)-2H-[1,2,3]triazol-4-ylmethylsulfanyl]-phenoxy}-propionic acid]
EC50 (mouse PPAR δ): ≤ 10 µM
EC50 (mouse PPARγ; read-out: Gene Activation Assay: EC50 PPAR gamma (number printed instead of a symbol)): 10 µM
EC50 (mouse PPAR α): ≤ 10 µM

Cc1cc(SCc2nn(-c3ccc(C(F)(F)F)cc3)nc2C(C)C)ccc1OCC(=O)O [Compound 320, {4-[5-Isopropyl-2-(4-trifluoromethyl-phenyl)-2H-[1,2,3]triazol-4-ylmethylsulfanyl]-2-methyl-phenoxy}-acetic acid]
EC50 (mouse PPAR δ): ≤ 10 µM
EC50 (mouse PPARγ; [1]): > 30 µM
EC50 (mouse PPAR α): > 10 µM

Cc1cc(SCc2nn(-c3ccc(C(F)(F)F)cc3)nc2-c2ccccc2)ccc1OCC(=O)O [Compound 340, {2-Methyl-4-[5-phenyl-2-(4-trifluoromethyl-phenyl)-2H-[1,2,3]triazol-4-ylmethylsulfanyl]-phenoxy}-acetic acid]
EC50 (mouse PPAR δ): ≤ 10 µM
EC50 (mouse PPARγ; [1]): > 30 µM
EC50 (mouse PPAR α): ≤ 10 µM

Cc1cc(SCc2nn(-c3ccc(C(F)(F)F)cc3)nc2C(F)(F)F)ccc1OCC(=O)O [Compound 360, {2-Methyl-4-[5-trifluoromethyl-2-(4-trifluoromethyl-phenyl)-2H-[1,2,3]triazol-4-ylmethylsulfanyl]-phenoxy}-acetic acid]
EC50 (mouse PPAR δ): ≤ 10 µM
EC50 (mouse PPARγ; [1]): > 30 µM
EC50 (mouse PPAR α): > 10 µM

COc1ccc(-n2nc(C)c(CSc3ccc(OCC(=O)O)c(C)c3)n2)cc1 [Compound 440, {4-[2-(4-Methoxy-phenyl)-5-methyl-2H-[1,2,3]triazol-4-ylmethylsulfanyl]-2-methyl-phenoxy}-acetic acid]
EC50 (mouse PPAR δ): ≤ 10 µM
EC50 (mouse PPARγ; [1]): > 10 µM
EC50 (mouse PPAR α): > 10 µM

Cc1cc(SCc2nn(-c3cccc(C(F)(F)F)c3)nc2C)ccc1OCC(=O)O [Compound 480, {2-Methyl-4-[5-methyl-2-(3-trifluoromethyl-phenyl)-2H-[1,2,3]triazol-4-ylmethylsulfanyl]-phenoxy}-acetic acid]
EC50 (mouse PPAR δ): ≤ 10 µM
EC50 (mouse PPARγ; [1]): > 10 µM
EC50 (mouse PPAR α): ≤ 10 µM

Cc1cc(SCCc2nn(-c3ccc(C(F)(F)F)cc3)nc2C)ccc1OCC(=O)O [Compound 580, (2-Methyl-4-{2-[5-methyl-2-(4-trifluoromethyl-phenyl)-2H-[1,2,3]triazol-4-yl]-ethylsulfanyl}-phenoxy)-acetic acid]
EC50 (mouse PPAR δ): ≤ 10 µM
EC50 (mouse PPARγ; [1]): > 30 µM
EC50 (mouse PPAR α): ≤ 10 µM

Cc1cc(SCc2nn(-c3ccc(Cl)c(Cl)c3)nc2C)ccc1OCC(=O)O [Compound 640, {4-[2-(3,4-Dichloro-phenyl)-5-methyl-2H-[1,2,3]triazol-4-ylmethylsulfanyl]-2-methyl-phenoxy}-acetic acid]
EC50 (mouse PPAR δ): ≤ 10 µM
EC50 (mouse PPARγ; [1]): > 30 µM
EC50 (mouse PPAR α): > 10 µM

CCCc1cc(CC(=O)O)ccc1OCc1nn(-c2ccc(C(F)(F)F)cc2)nc1C [Compound 660, {3-Propyl-4-[5-methyl-2-(4-trifluoromethyl-phenyl)-2H-[1,2,3]triazol-4-ylmethoxy]-phenyl}-acetic acid]
EC50 (mouse PPAR δ): ≤ 10 µM
EC50 (mouse PPARγ; [1]): > 30 µM
EC50 (mouse PPAR α): > 30 µM

Cc1nn(-c2ccc(C(F)(F)F)cc2)nc1COc1ccc(CC(=O)O)cc1 [Compound 670]
EC50 (mouse PPAR δ): ≤ 10 µM
EC50 (mouse PPARγ; [1]): > 30 µM
EC50 (mouse PPAR α): > 10 µM
